# Measurements: US9169519B2, “SUMO as a marker of cancer development and target for cancer therapy” (Duke University, priority 2010, dated 2015)
# Tested on: F98 rat glioblastoma cells
# Test: 3H-thymidine incorporation into DNA (DNA synthesis), with or without radiation
# Format: cell-based
# Conditions: 100 nM 4-HT versus vehicle, no radiation (FIG. 6B)
# Experimental: To investigate whether DNA synthesis of glioblastoma cells is modified by SUMO conjugation, the effects of suppressing SUMO conjugation on the incorporation of ^3H-thymidine into DNA was evaluated. SUMO conjugation was suppressed by blocking its expression using a miRNA approach. To avoid the risk of adaptive processes taking place in cells where SUMO expression had been silenced during the long selection process for stably transfected cells, a 4-hydroxy tamoxifen (4-HT)-inducible lentiviral system was used to express designed miRNAs (Callus et al., Cell Death Diff. 15: 213-219 (2008)). Briefly, the 4-HT inducible lentiviral system utilizes two constructs and the UAS/GAL4 system. […]
# The effect of SUMO1/2/3 miRNA expression on radiation induced impairment of DNA synthesis was investigated by measuring the uptake of ^3H-thymidine. […] Irradiated cells were detached with trypsin-EDTA (Fisher Scientific), counted, re-suspended in culture medium with supplements described above, and re-plated in a 96-well plate at a density of 10,000 cells per well. […] Cells were harvested 24 hr later following detachment with trypsin-EDTA, collected on filter paper, dried overnight, and immersed in scintillation cocktail (ICN Biochemicals), and counted for 10 min in a liquid scintillation counter. […]
substance,measurement,value
4-hydroxy tamoxifen [4-HT],3H-thymidine incorporation into DNA,did not produce any major change
